Measurements taken from patent US6534516B1, “Androgen receptor modulator compounds and methods” (Ligand Pharmaceuticals Incorporated, priority 1996, dated 2003).

Key:
human AR = molecular target: T1, human AR (Homo sapiens, UniProt P10275); assay: cell-based; format: cell-based
T1 construct: expressed in transfected cells; host or cells: CV-1 cells (African green monkey kidney fibroblasts)
T1 sequence (P10275 1-920): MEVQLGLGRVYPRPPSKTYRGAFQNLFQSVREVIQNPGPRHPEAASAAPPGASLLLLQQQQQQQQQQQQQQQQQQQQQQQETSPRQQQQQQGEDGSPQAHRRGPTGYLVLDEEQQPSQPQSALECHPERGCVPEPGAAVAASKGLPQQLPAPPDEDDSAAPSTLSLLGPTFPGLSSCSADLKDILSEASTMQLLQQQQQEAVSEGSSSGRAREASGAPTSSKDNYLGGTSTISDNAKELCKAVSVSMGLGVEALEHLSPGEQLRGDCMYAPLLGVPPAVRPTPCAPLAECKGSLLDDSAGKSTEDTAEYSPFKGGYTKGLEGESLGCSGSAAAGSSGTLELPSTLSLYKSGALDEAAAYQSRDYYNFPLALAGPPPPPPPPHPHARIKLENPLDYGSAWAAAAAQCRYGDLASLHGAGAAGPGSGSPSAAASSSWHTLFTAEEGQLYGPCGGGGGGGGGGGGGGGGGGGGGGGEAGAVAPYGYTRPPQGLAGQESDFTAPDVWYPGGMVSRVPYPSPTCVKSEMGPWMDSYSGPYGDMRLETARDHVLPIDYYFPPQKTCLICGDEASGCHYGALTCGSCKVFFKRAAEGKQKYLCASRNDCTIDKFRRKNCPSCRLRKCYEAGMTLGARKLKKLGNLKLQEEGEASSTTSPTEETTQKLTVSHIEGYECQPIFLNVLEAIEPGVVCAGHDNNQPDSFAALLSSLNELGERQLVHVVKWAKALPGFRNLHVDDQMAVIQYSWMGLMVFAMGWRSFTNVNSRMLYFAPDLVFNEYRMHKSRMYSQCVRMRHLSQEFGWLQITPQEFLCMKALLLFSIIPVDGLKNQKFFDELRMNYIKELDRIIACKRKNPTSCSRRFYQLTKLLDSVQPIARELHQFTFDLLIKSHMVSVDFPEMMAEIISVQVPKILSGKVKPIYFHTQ
Source text: The co-transfection assay provides a method for identifying functional agonists and partial agonists which mimic, or antagonists which inhibit, the effect of native hormones, and quantifying their activity for responsive IR proteins. In this regard, the co-transfection assay mimics an in vivo system in the laboratory. Importantly, activity in the co-transfection assay correlates very well with known in vivo activity, such that the co-transfection assay functions as a qualitative and quantitative predictor of a tested compounds in vivo pharmacology. See, e.g., T. Berger et al. 41 J. Steroid Biochem. Molec.
CV-1 cells (African green monkey kidney fibroblasts) were cultured in the presence of Dulbecco's Modified Eagle Medium (DMEM) supplemented with 10% charcoal resin-stripped fetal bovine serum then transferred to 96-well microtiter plates one day prior to transfection.
The reporter plasmid, MTV-LUC, contains the cDNA for firefly luciferase (LUC) under control of the mouse mammary tumor virus (MTV) long terminal repeat, a conditional promoter containing an androgen response element. See e.g., Berger et al. supra. In addition, pRS-β-Gal, coding for constitutive expression of E. coli β-galactosidase (β-Gal), was included as an internal control for evaluation of transfection efficiency and compound toxicity.
Three to four replicates were used for each sample.
After 40 hours, the cells were washed with PBS, lysed with a Triton X-100-based buffer and assayed for LUC and β-Gal activities using a luminometer or spectrophotometer, respectively. For each replicate, the normalized response (NR) was calculated as:
where β-Gal rate=β-Gal•1×10^−5/β-Gal incubation time.

PR = molecular target: T2, PR (Homo sapiens, UniProt P06401); assay: cell-based
T2 sequence (P06401 1-933): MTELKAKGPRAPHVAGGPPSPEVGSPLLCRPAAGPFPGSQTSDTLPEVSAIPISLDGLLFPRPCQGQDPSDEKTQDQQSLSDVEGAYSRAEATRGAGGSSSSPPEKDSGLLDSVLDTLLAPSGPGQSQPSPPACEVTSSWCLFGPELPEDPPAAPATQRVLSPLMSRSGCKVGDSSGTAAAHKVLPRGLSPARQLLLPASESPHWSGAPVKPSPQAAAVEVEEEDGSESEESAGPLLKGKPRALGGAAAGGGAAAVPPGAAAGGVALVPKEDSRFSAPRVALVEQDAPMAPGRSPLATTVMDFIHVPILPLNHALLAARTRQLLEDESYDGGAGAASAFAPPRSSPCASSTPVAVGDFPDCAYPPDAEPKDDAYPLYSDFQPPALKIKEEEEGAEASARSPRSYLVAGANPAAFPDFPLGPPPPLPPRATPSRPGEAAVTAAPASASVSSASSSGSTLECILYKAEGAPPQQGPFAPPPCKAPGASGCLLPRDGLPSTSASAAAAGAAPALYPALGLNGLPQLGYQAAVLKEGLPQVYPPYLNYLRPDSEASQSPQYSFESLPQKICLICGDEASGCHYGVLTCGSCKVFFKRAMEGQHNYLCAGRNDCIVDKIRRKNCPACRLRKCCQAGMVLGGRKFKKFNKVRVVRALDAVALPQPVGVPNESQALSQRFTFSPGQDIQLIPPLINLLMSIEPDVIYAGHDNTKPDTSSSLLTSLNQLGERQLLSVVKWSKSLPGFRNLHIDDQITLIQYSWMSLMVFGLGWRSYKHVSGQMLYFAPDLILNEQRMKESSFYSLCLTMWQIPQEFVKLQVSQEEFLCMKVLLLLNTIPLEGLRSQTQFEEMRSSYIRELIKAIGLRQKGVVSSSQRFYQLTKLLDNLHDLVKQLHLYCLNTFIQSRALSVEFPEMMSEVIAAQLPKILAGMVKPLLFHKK

Structure (SMILES): CC1(C)CCc2cc3c(C(F)(F)F)c(F)c(=O)[nH]c3cc2N1 [Compound 105, 7-Fluoro-1,2,3,4-tetrahydro-2,2-dimethyl-6-trifluoromethyl-8-pyridono[5,6-g]quinoline]
- AR Agonist CV-1 Cells Efficacy (human AR): 39 ± 6%
- EC50 (human AR): 125 ± 28 nM
- AR Antagonist CV-1 Cells Efficacy (human AR; antagonist mode, DHT at its EC50, % of maximal inhibition, na = not active): 39 ± 6%
- IC50 (human AR; read-out: AR Antagonist CV-1 Cells Potency): 34 ± 14 nM
- AR activity profile (in words) (human AR; summary of Tables 1 and 2): mixed AR agonists/antagonists
- IC50 (PR): 160 nM
